Measured values taken from patent publication US20080182277A1, “Assays and methods using biomarkers” (Genentech, Inc., priority 2005, published 2008).

Legend:
[1] = test system: PSN-1 pancreatic carcinoma cells; test: siRNA knockdown followed by cell viability assay, PSN-1; format: cell-based, human; conditions: siRNA 25 nM 48 h, then Apo2L/TRAIL 24 h
Experimental: (§1) FIG. 11 illustrates modulation of particular O-glycosylation enzymes alters sensitivity to Apo2L/TRAIL. (A) Colo205 cells were preincubated with the pan O-glycosylation enzyme inhibitor benzyl-GalNAc (bGalNAc), treated with Apo2L/TRAIL for 24 h, and cell viability was determined (DMSO=vehicle control). (B) PSN-1 (pancreatic carcinoma) and Hs294T (melanoma) cells were transfected with caspase-8 or ppGalNAcT-14 siRNAs for 48 h, incubated with Apo2L/TRAIL for another 24 h and cell viability was determined. siRNA duplexes against a non-targeting sequence (Dharmacon) were used as a control (NTC). (C) DLD-1 colorectal carcinoma cells were transfected with ppGalNAcT-3 or Fut-6 by siRNAs and tested as in B. (D) HEK293 cells were co-transfected with plasmids encoding the indicated genes in combination with ppGalNAcT-14 or vector control. Apoptosis was measured at 24 h by Annexin V staining (left panel). H1569 melanoma cells were transduced with retrovirus directing ppGalNAcT-14 expression or control retrovirus; resulting cell line pools were treated with Apo2L/TRAIL for 24 h and cell viability was determined (right panel). Western blot analysis using anti-FLAG antibodies was used to verify expression of epitope-tagged ppGalNAcT-14.
(§2) FIG. 14 illustrates (A) Reduction in mRNA expression of ppGalNAcT-14 or ppGalNAcT-3 in PSN-1 or DLD-1 cells after 48 h siRNA knockdown by Taqman analysis. […]

Hs294T melanoma cells = test: siRNA knockdown followed by cell viability assay, Hs294T; format: cell-based, human; conditions: siRNA 25 nM 48 h, then Apo2L/TRAIL 24 h
Experimental: as §1, §2

PSN-1 cells = test: Immunoblot analysis of the Apo2L/TRAIL-induced caspase cascade, PSN-1; format: cell-based, human; conditions: siRNA 48 h, Apo2L/TRAIL 4 or 8 h
Experimental: (§3) FIG. 12 illustrates (A) Analysis of the caspase cascade induced by Apo2L/TRAIL. PSN-1 and DLD-1 cells were transfected with siRNAs against ppGalNAcT-14 or Fut-6, respectively, for 48 h. The cells were treated with Apo2L/TRAIL for 4 or 8 h, and cell lysates were analyzed by immunoblot with antibodies specific for caspase-8, Bid, caspase-9, caspase-3, or actin as a loading control. (B) PSN-1 cells were transfected with ppGalNAcT-14 siRNA as in A, treated with Apo2L/TRAIL for 4 h, and caspase-3/7 enzymatic activity in cell lysates was determined. (C) Analysis of the Apo2L/TRAIL DISC. PSN-1 cells were transfected with ppGalNAcT-14 siRNA as in A. FLAG-Apo2L/TRAIL ([…]) was added for 0-60 min, the cells were lysed, and subjected to an immunoprecipitation with an anti-FLAG antibody. DISC-associated FADD, caspase-8, DR4, and were detected by immunoblot. (D) PSN-1 cells were transfected, treated, and subjected to DISC immunoprecipitation as in C, and DISC-associated caspase-8 enzymatic activity was measured as previously described (Sharp et al., J. Biol. Chem., 280:19401 (2005).
(§4) siRNAs were purchased as double stranded RNA oligonucleotides and transfected into the respective cell lines at a final concentration of 25 nM for each siRNA. siRNA duplexes against a non-targeting sequence (Dharmacon) was used as a control. […]

DLD-1 cells = test: Immunoblot analysis of the Apo2L/TRAIL-induced caspase cascade, DLD-1; format: cell-based, human; conditions: siRNA 48 h, Apo2L/TRAIL 4 or 8 h
Experimental: as §3, §4

Colo205 cells = test: Inhibition of O-glycosylation with benzyl-GalNAc, then Apo2L/TRAIL viability assay; format: cell-based, human; conditions: preincubation with Benzyl-a-GalNAc 2 mM or 4 mM, then Apo2L/TRAIL 24 h
Experimental: as §1
Colo205 cells were grown in the presence of Benzyl-a-GalNAc (2 mM or 4 mM) for 72 hours. […]

[2] = test system: panel of human cancer cell lines (23 pancreatic adenocarcinomas, 18 malignant melanomas, 36 colorectal adenocarcinomas); test: Cell viability assay to determine IC50 for Apo2L/TRAIL in a cancer cell line panel; format: cell-based
Experimental: FIG. 10A-D illustrates differential expression of specific O-glycosylation enzymes in Apo2L/TRAIL-sensitive and -resistant cancer cell lines: (A) Cell viability was measured after incubation with varying doses of Apo2L/TRAIL. IC50 for each cell line was computed as the concentration of Apo2L/TRAIL that gives 50% loss of viability. Each cell viability experiment was repeated at least three times in presence of low (0.5%) and high (10%) fetal bovine serum. Black, grey, or open symbols depict cell lines that are highly sensitive, moderately sensitive, or resistant to Apo2L/TRAIL, respectively. (B) ppGalNAcT-14 mRNA expression levels (probe set 219271 at) in pancreatic and malignant melanoma cell lines. Cell lines are arranged by tissue type and sensitivity to Apo2L/TRAIL. Black, grey, or open bars depict cell lines as in A. (C) mRNA expression levels of Fut-6 (top panel, probe set 211885_x_at) and ppGalNAcT-3 (bottom panel, probe set 203397_s_at) in colorectal cancer cell lines. […] Athymic nude mice carrying GalNAcT-3/Fut-6-positive (left panel) or GalNAcT-3/Fut-6-negative (right panel) tumors received vehicle or Apo2L/TRAIL (60 mg/kg/day i.p. on days 0-4) and tumor volume was monitored (mean ±SE, N=10 mice/group). […]

Colo205 tumor xenografts = test: Tumor xenograft study, Colo205; format: in vivo, mice; conditions: Fut-6-positive Colo205; 60 mg/kg/day i.p. on days 0-4
Experimental: (§5) FIG. 10A-D illustrates differential expression of specific O-glycosylation enzymes in Apo2L/TRAIL-sensitive and -resistant cancer cell lines: (A) Cell viability was measured after incubation with varying doses of Apo2L/TRAIL. IC50 for each cell line was computed as the concentration of Apo2L/TRAIL that gives 50% loss of viability. Each cell viability experiment was repeated at least three times in presence of low (0.5%) and high (10%) fetal bovine serum. Black, grey, or open symbols depict cell lines that are highly sensitive, moderately sensitive, or resistant to Apo2L/TRAIL, respectively. (B) ppGalNAcT-14 mRNA expression levels (probe set 219271 at) in pancreatic and malignant melanoma cell lines. Cell lines are arranged by tissue type and sensitivity to Apo2L/TRAIL. […] Athymic nude mice carrying GalNAcT-3/Fut-6-positive (left panel) or GalNAcT-3/Fut-6-negative (right panel) tumors received vehicle or Apo2L/TRAIL (60 mg/kg/day i.p. on days 0-4) and tumor volume was monitored (mean ±SE, N=10 mice/group).
(§6) Monosaccharide composition of CHO-cell-derived DR5 was obtained after hydrolysis with 4 N TFA. […] Tumor measurements were collected by a digital caliper and tumor volumes calculated using the formula […] (A=length) (B=width)^2. […]

DLD-1 tumor xenografts = test: Tumor xenograft study, DLD-1; format: in vivo, mice; conditions: Fut-6-positive DLD-1; 60 mg/kg/day i.p. on days 0-4
Experimental: as §5, §6

Colo320 tumor xenografts = test: Tumor xenograft study, Colo320; format: in vivo, mice; conditions: Fut-6-negative Colo320; 60 mg/kg/day i.p. on days 0-4
Experimental: as §5, §6

RKO tumor xenografts = test: Tumor xenograft study, RKO; format: in vivo, mice; conditions: Fut-6-negative RKO; 60 mg/kg/day i.p. on days 0-4
Experimental: as §5, §6

5′ GGACAAAGTTTACCAAATG-dTdT 3′ [caspase-8 siRNA, reference compound]
effect on sensitivity to Apo2L/TRAIL (cell viability) [1]: essentially complete protection
effect on sensitivity to Apo2L/TRAIL (cell viability) (Hs294T melanoma cells): essentially complete protection
Apo2L/TRAIL-induced caspase processing (caspase-8, Bid, caspase-9, caspase-3) (PSN-1 cells): prevented these events
Apo2L/TRAIL-induced caspase processing (caspase-8, Bid, caspase-9, caspase-3) (DLD-1 cells): prevented these events

CC(=O)N[C@H]1[C@@H](OCc2ccccc2)O[C@H](CO)[C@H](O)[C@@H]1O [benzyl-GalNAc, Benzyl-a-GalNAc]
effect on sensitivity to Apo2L/TRAIL (cell viability) (Colo205 cells): markedly reduced sensitivity to Apo2L/TRAIL

Apo2L/TRAIL: nontagged soluble recombinant human Apo2L/TRAIL, prepared as described in Lawrence et al.
cell lines classified as highly or moderately sensitive to Apo2L/TRAIL ([2]; 29/77 cell lines): 38%
Apo2L/TRAIL concentration required for achieving 50% cell death, mean ([2]; mean over the 29 highly or moderately sensitive cell lines): 250 ng/mL
effect on growth of established tumor xenografts (Colo205 tumor xenografts): tumor regression followed by a greatly delayed tumor progression
effect on growth of established tumor xenografts (DLD-1 tumor xenografts): tumor regression followed by a greatly delayed tumor progression
effect on growth of established tumor xenografts (Colo320 tumor xenografts): did not respond
effect on growth of established tumor xenografts (RKO tumor xenografts): did not respond
Apo2L/TRAIL-induced caspase processing (caspase-8, Bid, caspase-9, caspase-3) (PSN-1 cells): essentially complete processing of caspase-8
Apo2L/TRAIL-induced caspase processing (caspase-8, Bid, caspase-9, caspase-3) (DLD-1 cells): essentially complete processing of caspase-8
